According to ChEMBL document CHEMBL4814058, “Light-inducible control of cellular proliferation and differentiation by a Hedgehog signaling inhibitor” (Bioorg Med Chem, 2021):
Active and inactive are the calls of the source. The calls are words filed in the database; no cut-off is given here.

Legend:
[1] = Photostability of compound assessed as drug degradation at 1 mM irradiated with 2 J/cm2 light by HPLC/MS analysis; type: physicochemical; details: read-out: Drug degradation
[2] = Photostability of compound assessed as drug degradation at 1 mM irradiated with 8 J/cm2 light by HPLC/MS analysis; type: physicochemical; details: read-out: Drug degradation
NIH/3T3 [3] = assay: Inhibition of hedgehog signalling in mouse NIH/3T3 cells assessed as reduction in Gli1 mRNA expression at 1 uM measured after 6 hrs by RT-PCR analysis; type: cell-based
NIH/3T3 [4] = assay: Inhibition of SAG-induced hedgehog signalling in mouse NIH/3T3 cells assessed as reduction in Gli1 mRNA expression at 1 uM irradiated with 4 J/cm2 light followed by compound exposure and measured after 6 hrs by RT-PCR analysis; type: cell-based
NIH3T3 [5] = assay: Cytotoxicity against mouse NIH/3T3 cells assessed as reduction in cell viability at 1 to 10 uM incubated for 6 hrs by MTT assay; type: cell-based; details: nih3t3, 6 h, dose 1-10 µM
NIH3T3 [6] = assay: Cytotoxicity against mouse NIH/3T3 cells assessed as reduction in cell viability at 1 to 10 uM irradiated with 4 J/cm2 light followed by compound exposure and measured after 6 hrs by MTT assay; type: cell-based; details: nih3t3, 6 h, dose 1-10 µM
[7] = tested on: Cerebellar granule neurone; assay: Antiproliferative activity against ICR mouse cerebellar granule neurons assessed as reduction in Ki67 expression at 100 nM incubated for 48 hrs by immunostaining analysis; type: functional, tissue-based
[8] = tested on: Cerebellar granule neurone; assay: Antiproliferative activity against ICR mouse cerebellar granule neurons assessed as reduction in Ki67 expression at 100 nM irradiated with 4 J/cm2 light followed by incubation with compound for 48 hrs by immunostaining analysis; type: functional, tissue-based
[9] = Effect on differentiation of ICR mouse cerebellar granule neuron assessed as effect on Ki67-positive cells with low neurites at 100 nM incubated for 48 hrs by TUBB3 staining based immunofluorescence assay; type: tissue-based; details: cerebellar granule neurone, 0.1 µM
[10] = Effect on differentiation of ICR mouse cerebellar granule neuron assessed as effect on Ki67-positive cells with low neurites at 100 nM irradiated with 4 J/cm2 light followed by incubation with compound for 48 hrs by TUBB3 staining based immunofluorescence assay; type: tissue-based; details: cerebellar granule neurone, 0.1 µM
[11] = Effect on differentiation of ICR mouse cerebellar granule neuron assessed as effect on neurite length of Ki67-positive cells at 100 nM incubated for 48 hrs by TUBB3 staining based immunofluorescence assay; type: tissue-based; details: cerebellar granule neurone, 0.1 µM
[12] = Effect on differentiation of ICR mouse cerebellar granule neuron assessed as effect on neurite length of Ki67-positive cells at 100 nM irradiated with 4 J/cm2 light followed by incubation with compound for 48 hrs by TUBB3 staining based immunofluorescence assay; type: tissue-based; details: cerebellar granule neurone, 0.1 µM
[13] = Effect on differentiation of ICR mouse cerebellar granule neuron assessed as effect on Ki67-negative cells with neurite outgrowth at 100 nM incubated for 48 hrs by TUBB3 staining based immunofluorescence assay; type: tissue-based; details: cerebellar granule neurone, 0.1 µM
[14] = Effect on differentiation of ICR mouse cerebellar granule neuron assessed as effect on Ki67-negative cells with neurite outgrowth at 100 nM irradiated with 4 J/cm2 light followed by incubation with compound for 48 hrs by TUBB3 staining based immunofluorescence assay; type: tissue-based; details: cerebellar granule neurone, 0.1 µM
[15] = Effect on differentiation of ICR mouse cerebellar granule neuron assessed as effect on neurite length of Ki67-negative cells at 100 nM incubated for 48 hrs by TUBB3 staining based immunofluorescence assay; type: tissue-based; details: cerebellar granule neurone, 0.1 µM
[16] = Effect on differentiation of ICR mouse cerebellar granule neuron assessed as effect on neurite length of Ki67-negative cells at 100 nM irradiated with 4 J/cm2 light followed by incubation with compound for 48 hrs by TUBB3 staining based immunofluorescence assay; type: tissue-based; details: cerebellar granule neurone, 0.1 µM
NIH/3T3 [17] = assay: Inhibition of SAG-induced hedgehog signalling in mouse NIH/3T3 cells assessed as reduction in Gli1 mRNA expression at 0.1 to 10 uM measured after 6 hrs by RT-PCR analysis; type: cell-based; details: dose 0.1-10 µM
NIH/3T3 [18] = assay: Inhibition of SAG-induced hedgehog signalling in mouse NIH/3T3 cells assessed as reduction in Ptc mRNA expression at 0.1 to 10 uM measured after 6 hrs by RT-PCR analysis; type: cell-based; details: dose 0.1-10 µM
NIH/3T3 [19] = assay: Inhibition of SAG-induced hedgehog signalling in mouse NIH/3T3 cells assessed as reduction in Shh mRNA expression at 0.1 to 10 uM measured after 6 hrs by RT-PCR analysis; type: cell-based; details: dose 0.1-10 µM
NIH/3T3 [20] = assay: Inhibition of hedgehog signalling in mouse NIH/3T3 cells assessed as reduction in Gli1 mRNA expression at 0.1 to 10 uM measured after 6 hrs by RT-PCR analysis; type: cell-based; details: dose 0.1-10 µM
NIH/3T3 [21] = assay: Inhibition of hedgehog signalling in mouse NIH/3T3 cells assessed as reduction in Ptc mRNA expression at 0.1 to 10 uM measured after 6 hrs by RT-PCR analysis; type: cell-based; details: dose 0.1-10 µM
NIH/3T3 [22] = assay: Inhibition of hedgehog signalling in mouse NIH/3T3 cells assessed as reduction in Shh mRNA expression at 0.1 to 10 uM measured after 6 hrs by RT-PCR analysis; type: cell-based; details: dose 0.1-10 µM
NIH/3T3 [23] = assay: Inhibition of SAG-induced hedgehog signalling in mouse NIH/3T3 cells assessed as reduction in Gli1 mRNA expression at > 1 uM measured after 6 hrs by RT-PCR analysis; type: cell-based; details: dose microM >1, time 6.0 hrs

| Compound | Activity (NIH3T3 [5]) | Activity (NIH3T3 [6]) | Activity [8] | Activity [9] | Activity [11] | Activity [13] | Activity [15] | inhibition (NIH/3T3 [17]) | inhibition (NIH/3T3 [18]) | inhibition (NIH/3T3 [19]) | inhibition (NIH/3T3 [20]) | inhibition (NIH/3T3 [21]) | inhibition (NIH/3T3 [22]) | also measured |
| --- | --- | --- | --- | --- | --- | --- | --- | --- | --- | --- | --- | --- | --- | --- |
| CCCN(C(=O)OC(C)c1cc(OC)c(OCCCC(=O)O)cc1[N+](=O)[O-])[C@H]1CC[C@H](N(Cc2cccc(-c3ccncc3)c2)C(=O)c2sc3ccccc3c2Cl)CC1 (stereo partly specified) | Non-Toxic | Non-Toxic | Active | Non-Toxic | Non-Toxic | Non-Toxic | Non-Toxic |  |  |  |  |  |  | degraded at 1000 µM [1]: 90%; degraded at 1000 µM [2]: 100%; inhibition (NIH/3T3 [3]): inactive; inhibition (NIH/3T3 [4]): Active; Activity [7]: inactive; Activity [10]: Non-Toxic; Activity [12]: Non-Toxic; Activity [14]: Non-Toxic; Activity [16]: Non-Toxic |
| CC1=C2C[C@H]3[C@@H](CC=C4C[C@@H](O)CC[C@@]43C)[C@@H]2CC[C@]12O[C@@H]1C[C@H](C)CN[C@H]1[C@H]2C |  |  |  |  |  |  |  | Active | Active | inactive | inactive | inactive | inactive |  |
| CCCN[C@H]1CC[C@H](N(Cc2cccc(-c3ccncc3)c2)C(=O)c2sc3ccccc3c2Cl)CC1 | Non-Toxic | Non-Toxic | Active | Non-Toxic | Non-Toxic | Non-Toxic | Non-Toxic | Active | Active | inactive | inactive | inactive | inactive | inhibition (NIH/3T3 [23]): Active |
